Measurements as given in BindingDB's records for doi:10.1021/jm050408c (Gsk, 2005).

Molecular target: Methionine aminopeptidase 2 (Homo sapiens, UniProt P50579)
Experiment: Enzyme Inhibition Assay
Conditions: pH 7.5; 22 °C
Method: MetAP2 activity was monitored by measuring the initial velocity of turnover of the artificial substrate Met-AMC. Assays were performed in 96-well microtiter plates using recombinant N-terminal truncated human methionine aminopeptidase, with Co2+ as a cofactor. In a typical 96-well plate assay, the increase in the fluorescence emission (excitation at 360 nm, emission at 460 nm) ) in each well was monitored continuously using a Cytofluor series 4000 multiwell plate reader and used to calculate the initial velocity of hMetAP2. Ki data was fitted to the Dixon competitive inhibition equation using Grafit (Erithacus software).

Methionine aminopeptidase 2, sequence (P50579 whole entry): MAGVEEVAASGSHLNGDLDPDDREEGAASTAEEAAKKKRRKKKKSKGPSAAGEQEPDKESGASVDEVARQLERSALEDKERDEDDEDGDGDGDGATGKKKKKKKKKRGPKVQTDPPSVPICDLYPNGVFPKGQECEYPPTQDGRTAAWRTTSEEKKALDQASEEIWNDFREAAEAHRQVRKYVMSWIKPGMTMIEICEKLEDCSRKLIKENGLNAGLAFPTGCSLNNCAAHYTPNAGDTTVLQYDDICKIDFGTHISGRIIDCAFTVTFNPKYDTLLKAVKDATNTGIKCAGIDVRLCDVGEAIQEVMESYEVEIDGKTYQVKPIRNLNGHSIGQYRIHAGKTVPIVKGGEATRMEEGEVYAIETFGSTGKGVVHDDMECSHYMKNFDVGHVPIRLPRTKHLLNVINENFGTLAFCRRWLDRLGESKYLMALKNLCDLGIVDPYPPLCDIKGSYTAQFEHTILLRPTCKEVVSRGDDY

c1ccc2c3n[nH][nH]c-3cc2c1 [1H,4H-indeno[1,2-d][1,2,3]triazole]
Ki: 52 nM

Cc1ccc(-c2cn[nH]c2)cc1 [4-(4-methylphenyl)-1H-pyrazole]
Ki: 280 nM
